One assay has as its system cancer cell lines. Nature of the assay: In vitro assays of cancer cell lines. Format: cell-based. As to conditions: direct activity on cancer cell lines; read-out: IC50 in all in vitro assays of cancer cell lines. An excerpt: In prior research (Sun C.; Ge X.; Mudassir S.; Zhou L.; Yu G.; Che Q.; Zhang G.; Peng J.; Gu Q.; Zhu T. New glutamine-containing azaphilone alkaloids from deep-sea-derived fungus Chaetomium globosum HDN151398. Mar. Drugs 2019, 17, 253.), the inventors discovered compound 1778.

For assay [1], the system named is primary NK cells from the pleural fluid of lung cancer patients. Nature of the assay: Primary NK cell activation (CD107 flow cytometry), pleural effusion from lung cancer patients. Format: cell-based, Human. As to conditions: 1, 10, 100 nM, 72 h, K562 targets 5:1, FIG. 7. As for the experimental part: (§1) CD107 is expressed on the surface of NK cells released by the activator. Therefore, the activation of NK cells can be reflected by detecting the content of CD107 expressed by cell membrane.
(§2) 6.1 Collect peripheral blood from normal individuals and pleural effusion from lung cancer patients using sterile anticoagulant tubes, and dilute with an equal volume of sterile PBS. Take a 50 ml centrifuge tube and absorb a certain volume of lymphocyte separation solution (Solarbio Science & Technology Co., Ltd.). Slowly add diluted peripheral blood and pleural effusion in a volume ratio of 4:3. Centrifuge at 400 g at room temperature for 30 min (Adjust the lifting and deceleration speed of the centrifuge to rise 1 or down 1). 6.2 Carefully absorb the white lymphocyte layer in the middle and place it in PBS (at least three times the volume of the absorbed cells). Overturn and blending, and wash the cells. Centrifuge at 100 g at room temperature for 10 min. Discard the supernatant, resuspend the cell pellet in 10 ml PBS, and gently mix. Wash off residual Ficoll, then centrifuge again at 100 g for 10 min. Discard the supernatant, resuspend the cell pellet in RPMI-1640 complete medium, and continue culture for 3 days with RPMI-1640 complete medium containing 10 ng/ml IL-2 to stimulate primary NK cell expansion and activation. […] The detection results were analyzed using FlowJo software.
In general terms: Flow cytometry measures light scatter and fluorescence of single cells or particles in a stream.

Another assay concerns B16F10 melanoma cells. Nature of the assay: Melanoma lung metastasis model in C57BL/6 mice. Format: in vivo. As to conditions: 25 mg/kg daily intraperitoneal, 14 days; B16F10 via tail vein; FIG. 8. As for the experimental part: To investigate whether 1778 works in vivo, we used a melanoma lung metastasis model.
Mouse B16F10 melanoma cells were intravenously injected into mice, and then 1778 was administered for efficacy evaluation. B116F10 cells are highly metastatic and lack MHC class-I expression, and it has been previously reported that the metastasis of B116F10 cells in vivo is mainly controlled by NK cells.
7.1 Inject 200,000 B116F10 cells via the tail vein into each C57BL/6J mouse. 7.2 A daily intraperitoneal injection of 1778 at a dose of 25 mg/kg (diluted with PBS solution to a final volume of 200 μL). The control group was injected intraperitoneally with an equivalent volume of PBS (with the same concentration of solvent DMSO). Weigh the mice every other day to monitor the impact on body weight. After 14 days of drug administration, euthanize the mice, collect lung tissue, and fix it in tissue fixative. Count and statistically analyze the number of melanoma colonies in the lungs.

Assay [2] deals with NK92 cells. Nature of the assay: Killing function of NK92 cells against tumor cells after compound treatment (LDH assay, initial screening). Format: cell-based, Human. As to conditions: for cytotoxicity at 0.1 µM: Homo sapiens, NK92 treated at 100 nM for 72 h, effector-to-target ratio 5:1, 5 h co-culture, LDH release, read-out: tumor killing rate by NK activation. As for the experimental part:
(§3) Seed the NK92 cells obtained from 1.3 into a 24-well cell culture plate (referred to as a 24-well plate) at a concentration of 3×10^5 cells/well, with 4 wells designated as blank or drug-treated. For the drug-treated wells, set the initial screening concentration to 100 nM. Add 900 μL of cell suspension and 100 μL of drug to each well. For the blank wells, add 100 μL of double-distilled water. Incubate the 24-well plate in a 37° C., 5% CO2 incubator for 72 h. Replace the fresh culture medium and add drugs every 24 h during the incubation.
(§4) Seed various types of tumor cells in logarithmic phase into a 96-well cell culture plate at a concentration of 5×10^3 cells/well. Set up 3 replicate wells for each concentration and include wells for target cell spontaneous release and target cell maximum release. Incubate the 96-well plate overnight in a 37° C., 5% CO2 incubator.
Centrifuge and count the NK92 cells from 2.1 in the 24-well plate cultured for 72 h. Add the cells to the overnight-cultured tumor target cells according to the effector-to-target ratio of 5:1 (excluding wells for target cell spontaneous release and maximum release). Also, set up 3 effector cell control wells. Add 200 μL of cell suspension to each well, then centrifuge at 300 g, 25° C. for 5 min to allow sufficient contact between effector cells and target cells. Continue to place the 96 well plate in a 37° C., 5% CO2 incubator and co-cultivate the NK92 and target cells for 5 h.
Lactate dehydrogenase (LDH) assay kit (BioGend Biotech Co., Ltd.) is used to detect the killing effect of effector cells on target cells. Add LDH release reagent to the wells with target cell maximum release and incubate for 1 h. After 1 h, centrifuge at 500 g, 25° C. for 5 min. Transfer 120 μL of supernatant from each well to a new 96-well plate, add the prepared LDH detection solution (60 μL/well: 20 μL lactate solution, 20 μL 1×INT working solution, and 20 μL enzyme solution) in the dark, and mix well by pipetting. Incubate at room temperature in the dark for 20 min (wrapped in aluminum foil and shook slowly on a shaker). Measure the absorbance at 490 nm using a microplate reader and the measured absorbance value of each well should subtract the absorbance value of the background blank control well.
Cytotoxicity (%)=[(Experimental group−Effector cell control−Target cell spontaneous release)/(Target cell maximum release−Target cell spontaneous release)]×100.
On the technique in general: Release of lactate dehydrogenase indicates damage to the cell membrane.

Assay [3] has as its system NK92 cells. Nature of the assay: Killing ability of NK cell against tumor cells after treatment with 1778 (1, 10, 100 nM). Format: cell-based, Human. As for the experimental part: as §3, §4
Centrifuge and count the NK92 cells from 2.1 in the 24-well plate cultured for 72 h. […]
Lactate dehydrogenase (LDH) assay kit (BioGend Biotech Co., Ltd.) is used to detect the killing effect of effector cells on target cells. […] Measure the absorbance at 490 nm using a microplate reader and the measured absorbance value of each well should subtract the absorbance value of the background blank control well. […]

Assay [4] relates to NK92 cells. Description: NK cell proliferation rate using CCK-8. Format: cell-based, Human. As to conditions: 1-10000 nM, 72 h, FIG. 1. The protocol: 3. Determination of NK Cell Proliferation Rate Using CCK-8 after Treatment with 1778 3.1 Preparation of Compound Concentration Gradient: Dilute the azaphilone compound 1778 with double-distilled water to set up 5 concentrations, with final concentrations of 1, 10, 100, 1000, and 10000 nM in the wells.
Seed NK92 cells obtained from 1.3 into 96-well cell culture plate (referred to as a 96-well plate) at a concentration of 1×10^4 cells/well, […]. Set up 5 replicates for each compound concentration (also need to set a blank group, that is, double-distilled water replaces the compound), and seal wells with PBS. Incubate in a 37° C., 5% CO2 incubator for 72 h.
Remove the cell culture plates from 2.2 and add 10 μL of CCK-8 solution (Shanghai Yisheng Biotechnology Co., Ltd.) to each well, avoiding bubbles. After adding CCK-8 solution, incubate the 96-well cell culture plates in a 37° C., 5% CO2 incubator for 2.5 h. Measure the absorbance at 450 nm using a microplate reader to compare the proliferation level of NK92 cells.

Assay [5] has as its system primary NK cells isolated from the peripheral blood of healthy individuals. Description: Primary NK cell activation (CD107 flow cytometry), peripheral blood PBMCs from healthy donors. Format: cell-based, Human. As to conditions: 1, 10, 100 nM, 72 h, K562 targets 5:1, FIG. 6. As for the experimental part: as §1, §2
Assay [6] has as its system NK92 cells. Description: NK cell activation factor release (ELISA) after co-culture with NCI-H1975. Format: cell-based, Human. The protocol: NK cells release granzyme B and perforin to kill tumor cells upon activation, while release IFN-γ to regulate the mechanism of antitumor immunity.
5.1 Pre-treatment of NK92 Cells with Compound 1778: Seed NK92 cells into a 24-well plate and treat with drug as described in section 3.1.
Seed logarithmic phase NCI-H1975 cells into 96-well plates at a concentration of 1×10^4 cells/well. Set up 3 replicates for each concentration and control wells for target cell. Incubate the 96-well plate overnight in a 37° C., 5% CO2 incubator.
According to the effector-to-target ratio of 5:1, add NK92 cells to NCI-H1975, co-cultivate for over 6 h and centrifuge (500 g, 25° C.). Then collect supernatant (use within 24 h). Use ELISA kits (BD Biosciences, USA) to detect the release of 3 activating cytokines granzyme B (FIG. 3), perforin (FIG. 4), and IFN-γ (FIG. 5).

The structures appear in SMILES notation. “Also recorded” adds a separate entry of the source.

`C/C=C(\C)C(=O)C1=C2C3=CN([C@@H](CCC(=O)O)C(=O)O)C(/C=C/[C@@H](C)CC)=CC3=C(Cl)C(=O)[C@@]2(C)OC1=O` [Compound 1778]: the IC50 with cancer cell lines is over 50 µM. Also, the “expression of CD107 (degranulation) in primary NK cells” value in assay [1] and in assay [5] was “significantly promotes the degranulation; also recorded: significant increase” in each case. Also, the “number of lung metastases (melanoma colonies in the lungs)” value in the assay with B16F10 melanoma cells is recorded as “significant inhibitory effect; also recorded: significantly reduced”. In addition, the cytotoxicity at 0.1 µM in the assay with NK92 cells [2] turned out to be 75.2%. Also, in the assay with NK92 cells [2] (summary in words of the 100 nM screening table), the “activation effect on NK92 cells” value is “very strong activation effect”. Besides, in the assay with NK92 cells [3] (1, 10, 100 nM, FIG. 2), the “ability of NK92 cells to kill various types of tumor cells” value is given as “significantly enhances; also recorded: significantly promotes the killing activity”. In the assay with NK92 cells [3] (concentrations as low as), the “concentration at which NK cells are activated” value fell in the range of 1 to 100 nM. In addition, in the assay on NK92 cells [4], the “proliferation of NK92 cells” value is “weak proliferative effect; also recorded: promotes the proliferation”. The “release of granzyme B by NK-92 cells” value in the assay with NK92 cells [6] (co-culture with NCI-H1975, 5:1, FIG. 3) is on record as “promotes the releases; also recorded: significantly promotes the release”. Further, the “release of perforin by NK-92 cells” value with NK92 cells [6] (co-culture with NCI-H1975, 5:1, FIG. 4) is on record as “promotes the releases; also recorded: significantly promotes the release”. Moreover, in the assay with NK92 cells [6] (co-culture with NCI-H1975, 5:1, FIG. 5), the “release of IFN-γ by NK-92 cells” value is “significantly promotes the release; also recorded: promotes the releases”.
For `C/C=C(\C)C(=O)C1=C2C3=CN([C@@H](CCC(=O)OC)C(=O)OC)C(/C=C/[C@@H](C)CC)=CC3=C(Cl)C(=O)[C@@]2(C)OC1=O` [Compound 1779], the cytotoxicity at 0.1 µM in the assay on NK92 cells [2] worked out at 22%.
Turning to `CC[C@H](C)/C=C(C)/C=C/C1=CC2=C(Cl)C(=O)[C@](C)(OC(C)=O)C(=O)C2=CN1CC(=O)O` [Compound 1996], the cytotoxicity at 0.1 µM in the assay with NK92 cells [2] was 6.12%.
For `CC[C@H](C)/C=C(C)/C=C/C1=CC2=C(Cl)C(=O)[C@](C)(OC(C)=O)C(=O)C2=CN1[C@@H](Cc1ccc(O)cc1)C(=O)O` [Compound 1997], in the assay with NK92 cells [2], the cytotoxicity at 0.1 µM amounted to 29.5%.
Take `CC[C@H](C)/C=C(C)/C=C/C1=CC2=C(Cl)C(=O)[C@](C)(OC(C)=O)C(=O)C2=CN1[C@@H](C)C(=O)O` [Compound 1998]: the cytotoxicity at 0.1 µM with NK92 cells [2] was determined as 78.4%.
With `CC[C@H](C)/C=C(C)/C=C/C1=CC2=C(Cl)C(=O)[C@](C)(OC(C)=O)C(=O)C2=CN1[C@@H](CO)C(=O)O` [Compound 1999], the cytotoxicity at 0.1 µM with NK92 cells [2] worked out at 58.3%.
`CC[C@H](C)/C=C(C)/C=C/C1=CC2=C(Cl)C(=O)[C@](C)(OC(C)=O)C(=O)C2=CN1[C@@H](Cc1ccccc1)C(=O)O` [Compound 2000]: the cytotoxicity at 0.1 µM in the assay with NK92 cells [2] is 65.2%.
For the compound `CC[C@H](C)/C=C(C)/C=C/C1=CC2=C(Cl)C(=O)[C@](C)(OC(C)=O)C(=O)C2=CN1[C@@H](CC(C)C)C(=O)O` [Compound 2001], in the assay with NK92 cells [2], the cytotoxicity at 0.1 µM was determined as 18.7%.
The same measure, in the same setting: under `CC[C@H](C)/C=C(C)/C=C/C1=CC2=C(Cl)C(=O)[C@](C)(OC(C)=O)C(=O)C2=CO1` [Compound 2307] stands 38.3%; under `CC[C@H](C)/C=C(C)/C=C/C1=CC2=C(Cl)C(=O)[C@](C)(OC(C)=O)C(=O)C2=CN1CCO` [Compound 2308], 8.11%.
For the compound `CC[C@H](C)/C=C(C)/C=C/C1=CC2=C(Cl)C(=O)[C@](C)(OC(C)=O)C(=O)C2=CN1[C@H](C(=O)O)[C@@H](C)O` [Compound 2309], the cytotoxicity at 0.1 µM in the assay with NK92 cells [2] was determined as 28.3%.
Same read-out and setting: as for `C/C=C(\C)C(=O)C1=C2C3=CN([C@@H](Cc4c[nH]c5ccccc45)C(=O)O)C(/C=C/[C@@H](C)CC)=CC3=C(Cl)C(=O)[C@@]2(C)OC1=O` [Compound 2318], the figure is 35.9%; as for `C/C=C(\C)C(=O)C1=C2C3=CN([C@@H](Cc4c[nH]cn4)C(=O)O)C(/C=C/[C@@H](C)CC)=CC3=C(Cl)C(=O)[C@@]2(C)OC1=O` [Compound 2320], 22.2%.

Broadly, the IC50 is the concentration at which inhibition is half-maximal.

These data come from patent US20250177375A1, “AZAPHILONE COMPOUND AND USE THEREOF IN PREPARATION OF ANTI-TUMOR DRUGS” (OCEAN UNIVERSITY OF CHINA, priority 2022, published 2025).
